The values that follow come from US20240382482A1, “PLASMA KALLIKREIN INHIBITORS” (TAKEDA PHARMACEUTICAL COMPANY LIMITED, priority 2021, published 2024).

Counter-ions that a name gives are not always drawn.

Chain of human activated kallikrein enzyme (P03952 391-638 limits assumed): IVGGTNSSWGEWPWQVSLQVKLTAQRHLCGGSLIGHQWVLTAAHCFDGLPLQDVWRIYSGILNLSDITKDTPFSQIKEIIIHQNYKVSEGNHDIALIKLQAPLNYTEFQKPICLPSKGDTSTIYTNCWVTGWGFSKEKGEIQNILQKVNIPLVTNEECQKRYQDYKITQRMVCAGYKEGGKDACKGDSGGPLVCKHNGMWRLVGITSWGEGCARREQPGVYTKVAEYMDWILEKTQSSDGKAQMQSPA
Chain of human activated kallikrein enzyme (P03952 20-390 partner limits assumed): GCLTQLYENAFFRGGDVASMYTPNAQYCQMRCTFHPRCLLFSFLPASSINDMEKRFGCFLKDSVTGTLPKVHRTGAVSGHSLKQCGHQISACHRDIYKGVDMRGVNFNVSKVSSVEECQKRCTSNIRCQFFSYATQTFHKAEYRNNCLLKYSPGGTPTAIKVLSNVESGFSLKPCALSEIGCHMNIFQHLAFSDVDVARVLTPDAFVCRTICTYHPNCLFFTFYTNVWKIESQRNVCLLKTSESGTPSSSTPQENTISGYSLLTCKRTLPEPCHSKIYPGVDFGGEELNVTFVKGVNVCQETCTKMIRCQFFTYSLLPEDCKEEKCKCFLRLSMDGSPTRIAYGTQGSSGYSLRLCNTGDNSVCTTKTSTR

This experiment deals with human activated kallikrein enzyme (Homo sapiens, UniProt P03952). The experiment is described as follows: Inhibition of human activated kallikrein enzyme, fluorogenic peptide substrate assay (500 pM enzyme format). The format is biochemical. Conditions: 500 pM activated kallikrein, 300 μM PFR-AMC substrate, 30 min preincubation, 10 min reaction, room temperature; read-out: Primary Dose Response Assay: Average EC50. The gist of the method:
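500 pM enzyme preincubated 30 min at room temperature with inhibitor in 20 mM Tris pH 7.5, 150 mM NaCl, 1 mM EDTA, 0.1% PEG-400, 0.1% Triton X-100. Reaction started with 300 μM PFR-AMC and run 10 min at room temperature. AMC fluorescence read at ex 380/em 460 nm, and EC50 values reported as ranges.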
For the compound `CCCCCCOC(=O)NC(=N)c1cc(C)c(CNc2cc(OCc3cn4cc(C5CC5)ccc4n3)ncn2)c(C)c1` [Example 76, hexyl ((4-(((6-((6-cyclopropylimidazo[1,2-a]pyridin-2-yl)methoxy)pyrimidin-4-yl)amino)methyl)-3,5-dimethylphenyl)(imino)methyl)carbamate], the EC50 was in the range of 50 to 500 nM. As for `C[C@H](C(=O)Nc1cc(NCc2cn3cc(C4CC4)ccc3n2)ncn1)[C@@H](C)c1cccc(Cl)c1` [Example 133, (2S,3R)-3-(3-chlorophenyl)-N-(6-(((6-cyclopropylimidazo[1,2-a]pyridin-2-yl)methyl)amino)pyrimidin-4-yl)-2-methylbutanamide], the figure is > 9000 nM; as for `O[C@H]1C[C@H](c2cn3cc(C4CC4)ccc3n2)N(c2cc(NCc3cc4cc[nH]c4cc3F)ncn2)C1` [Example 140, (3S,5R)-5-(6-cyclopropylimidazo[1,2-a]pyridin-2-yl)-1-(6-(((6-fluoro-1H-indol-5-yl)methyl)amino)pyrimidin-4-yl)pyrrolidin-3-ol], 500 to 9000 nM; as for `O=C(Cc1ncn2ccc(Cl)cc12)Nc1cc(OCc2cn3cc(C4CC4)ccc3n2)ccn1` [Example 23, 2-(7-chloroimidazo[1,5-a]pyridin-1-yl)-N-(4-((6-cyclopropylimidazo[1,2-a]pyridin-2-yl)methoxy)pyridin-2-yl)acetamide], 5 to 50 nM.

With `O=C(Cc1ncn2ccc(Cl)cc12)Nc1cc(C(=O)c2cn3cc(C4CC4)ccc3n2)ncn1` [Example 58, 2-(7-chloroimidazo[1,5-a]pyridin-1-yl)-N-(6-(6-cyclopropylimidazo[1,2-a]pyridine-2-carbonyl)pyrimidin-4-yl)acetamide], the EC50 is 500 to 9000 nM. In the case of `CCOC(=O)CCc1cc(C2CC2)cn2cc(COc3cc(NCc4c(C)cc(C(=N)N)cc4C)ncn3)nc12` [Example 96, ethyl 3-(2-(((6-((4-carbamimidoyl-2,6-dimethylbenzyl)amino)pyrimidin-4-yl)oxy)methyl)-6-cyclopropylimidazo[1,2-a]pyridin-8-yl)propanoate] it was ≤ 5 nM; in that of `O=C(Cc1ncn2ccc(Cl)cc12)Nc1cc(NCc2cn3cc(C4CC4)ccc3n2)nc(C(F)(F)F)n1` [Example 101, 2-(7-chloroimidazo[1,5-a]pyridin-1-yl)-N-(6-(((6-cyclopropylimidazo[1,2-a]pyridin-2-yl)methyl)amino)-2-(trifluoromethyl)pyrimidin-4-yl)acetamide], 5 to 50 nM; in that of `Cc1cc(CN)cc(C)c1CNc1cc(OCc2cn3cc(C4CC4)ccc3n2)ncn1` [Example 108, N-(4-(aminomethyl)-2,6-dimethylbenzyl)-6-((6-cyclopropylimidazo[1,2-a]pyridin-2-yl)methoxy)pyrimidin-4-amine], ≤ 5 nM. As to `O=C(Cc1cc(Cl)ccc1-c1nnn[nH]1)Nc1cc(NCc2cn3cc(C4CC4)ccc3n2)ncn1` [Example 10, 2-(5-chloro-2-(1H-tetrazol-5-yl)phenyl)-N-(6-(((6-cyclopropylimidazo[1,2-a]pyridin-2-yl)methyl)amino)pyrimidin-4-yl)acetamide], the EC50 is > 9000 nM. In the case of `O=C(Cc1ncn2ccc(Cl)cc12)Nc1cc(OCc2cn3cc(C4CC4)ccc3n2)cnn1` [Example 32, 2-(7-chloroimidazo[1,5-a]pyridin-1-yl)-N-(5-((6-cyclopropylimidazo[1,2-a]pyridin-2-yl)methoxy)pyridazin-3-yl)acetamide] it was ≤ 5 nM. In the case of `O=C(Nc1cc(NCc2cn3cc(C4CC4)ccc3n2)ccn1)C1CCc2ccc(Cl)cc2C1` (stereo not shown) [Example 120, 7-chloro-N-(4-(((6-cyclopropylimidazo[1,2-a]pyridin-2-yl)methyl)amino)pyridin-2-yl)-1,2,3,4-tetrahydronaphthalene-2-carboxamide], the EC50 lay in the range of 500 to 9000 nM. As for `O=C(Cn1c(=O)oc2ccc(Cl)cc21)Nc1cc(NCc2cn3cc(C4CC4)ccc3n2)ccn1` [Example 124, 2-(5-chloro-2-oxobenzo[d]oxazol-3 (2H)-yl)-N-(4-(((6-cyclopropylimidazo[1,2-a]pyridin-2-yl)methyl)amino)pyridin-2-yl)acetamide], the figure is 500 to 9000 nM.

For `Nc1nccc2c1CC(C(=O)Nc1cc(NCc3cn4cc(C5CC5)ccc4n3)ccn1)C2` (stereo not shown) [Example 29, 1-amino-N-(4-(((6-cyclopropylimidazo[1,2-a]pyridin-2-yl)methyl)amino)pyridin-2-yl)-6,7-dihydro-5H-cyclopenta[c]pyridine-6-carboxamide], the EC50 lay within 500 to 9000 nM.

In the case of `CCOC(=O)NC(=N)c1cc(C)c(CNc2cc(OCc3cn4cc(C5CC5)ccc4n3)ncn2)c(C)c1` [Example 83, ethyl ((4-(((6-((6-cyclopropylimidazo[1,2-a]pyridin-2-yl)methoxy)pyrimidin-4-yl)amino)methyl)-3,5-dimethylphenyl)(imino)methyl)carbamate], the EC50 fell in the range of 50 to 500 nM. In the case of `O[C@H]1C[C@H](c2cn3cc(C4CC4)ccc3n2)N(c2cc(NCc3cc4c(Cl)c[nH]c4cc3F)ncn2)C1` [Example 139, (3S,5R)-1-(6-(((3-chloro-6-fluoro-1H-indol-5-yl)methyl)amino)pyrimidin-4-yl)-5-(6-cyclopropylimidazo[1,2-a]pyridin-2-yl)pyrrolidin-3-ol], the EC50 was 50 to 500 nM. For the compound `COc1ccc2oc(=O)n(CC(=O)Nc3cc(NCc4cn5cc(C6CC6)ccc5n4)ccn3)c2c1` [Example 125, N-(4-(((6-cyclopropylimidazo[1,2-a]pyridin-2-yl)methyl)amino)pyridin-2-yl)-2-(5-methoxy-2-oxobenzo[d]oxazol-3 (2H)-yl)acetamide], the EC50 is > 9000 nM. Take `NC(=O)Cc1cc2c(Cl)cn(-c3cc(NCc4cn5cc(C6CC6)ccc5n4)ccn3)c2cc1F` [Example 127, 2-(3-chloro-1-(4-(((6-cyclopropylimidazo[1,2-a]pyridin-2-yl)methyl)amino)pyridin-2-yl)-6-fluoro-1H-indol-5-yl)acetamide]: the EC50 was 500 to 9000 nM. Turning to `CC(Oc1cccc(Cl)c1)C(=O)Nc1cc(NCc2cn3cc(C4CC4)ccc3n2)ncn1` (stereo not shown) [Example 49, 2-(3-chlorophenoxy)-N-(6-(((6-cyclopropylimidazo[1,2-a]pyridin-2-yl)methyl)amino)pyrimidin-4-yl)propanamide formic acid salt], the concentration for a half-maximal effect (EC50) is 500 to 9000 nM.

Regarding `O=C(Cc1cc2c(Cl)c[nH]c2cc1F)Nc1cc(NCc2cn3cc(C4CC4)ccc3n2)ccn1` [Example 132, 2-(3-chloro-6-fluoro-1H-indol-5-yl)-N-(4-(((6-cyclopropylimidazo[1,2-a]pyridin-2-yl)methyl)amino)pyridin-2-yl)acetamide], the EC50 is 5 to 50 nM.

Turning to `Cc1cc(C(=N)N)cc(C)c1CNc1cc(NCc2cn3cc(C4CC4)ccc3n2)cnn1` [Example 98, 4-(((5-(((6-cyclopropylimidazo[1,2-a]pyridin-2-yl)methyl)amino)pyridazin-3-yl)amino)methyl)-3,5-dimethylbenzimidamide], the EC50 was ≤ 5 nM. For `O=C(COc1cc(Cl)ccc1-n1cnnn1)Nc1cc(NCc2cn3cc(C4CC4)ccc3n2)ccn1` [Example 116, 2-(5-chloro-2-(1H-tetrazol-1-yl)phenoxy)-N-(4-(((6-cyclopropylimidazo[1,2-a]pyridin-2-yl)methyl)amino)pyridin-2-yl)acetamide], the EC50 lay in the range of 5 to 50 nM. For `CC(=O)OCONC(=N)c1cc(C)c(CNc2cc(OCc3cn4cc(C5CC5)ccc4n3)ncn2)c(C)c1` [Example 90, ((4-(((6-((6-cyclopropylimidazo[1,2-a]pyridin-2-yl)methoxy)pyrimidin-4-yl)amino)methyl)-3,5-dimethylbenzimidamido)oxy)methyl acetate], the EC50 fell in the range of 500 to 9000 nM. Turning to `O=C(Cn1ccc2ccc(Cl)cc21)Nc1cc(NCc2cn3cc(C4CC4)ccc3n2)ccn1` [Example 115, 2-(6-chloro-1H-indol-1-yl)-N-(4-(((6-cyclopropylimidazo[1,2-a]pyridin-2-yl)methyl)amino)pyridin-2-yl)acetamide], the EC50 fell in the range of 500 to 9000 nM. On to `CCOC(=O)CCc1nc(NCc2c(C)cc(C(=N)N)cc2C)cc(OCc2cn3cc(C4CC4)ccc3n2)n1` [Example 70, ethyl 3-(4-((4-carbamimidoyl-2,6-dimethylbenzyl)amino)-6-((6-cyclopropylimidazo[1,2-a]pyridin-2-yl)methoxy)pyrimidin-2-yl)propanoate formic acid salt], for which the EC50 is ≤ 5 nM.

For `O=C(CC1(c2cccc(Cl)c2)CC1)Nc1cc(NCc2cn3cc(C4CC4)ccc3n2)ccn1` [Example 126, 2-(1-(3-chlorophenyl)cyclopropyl)-N-(4-(((6-cyclopropylimidazo[1,2-a]pyridin-2-yl)methyl)amino)pyridin-2-yl)acetamide], the EC50 lay in the range of 500 to 9000 nM. As for `COc1ccc2oc(=O)n(CC(=O)Nc3cc(NCc4cn5cc(C6CC6)ccc5n4)ncn3)c2c1` [Example 122, N-(6-(((6-cyclopropylimidazo[1,2-a]pyridin-2-yl)methyl)amino)pyrimidin-4-yl)-2-(5-methoxy-2-oxobenzo[d]oxazol-3 (2H)-yl)acetamide], the figure is > 9000 nM. Turning to `CC(C(=O)Nc1cc(C(F)(F)c2cn3cc(C4CC4)ccc3n2)ncn1)c1ncn2ccc(Cl)cc12` (stereo not shown) [Example 61, 2-(7-chloroimidazo[1,5-a]pyridin-1-yl)-N-(6-((6-cyclopropylimidazo[1,2-a]pyridin-2-yl)difluoromethyl)pyrimidin-4-yl)propanamide], the EC50 is 500 to 9000 nM. Take `CC(C(=O)Nc1cc(NCc2cn3cc(C4CC4)ccc3n2)ncn1)c1ncn2ccc(Cl)cc12` (stereo not shown) [Example 4, 2-(7-chloroimidazo[1,5-a]pyridin-1-yl)-N-(6-(((6-cyclopropylimidazo[1,2-a]pyridin-2-yl)methyl)amino)pyrimidin-4-yl)propanamide]: the EC50 was in the range of 5 to 50 nM.

Broadly, the EC50 is the concentration giving half of the maximal effect.
